From patent US6294555A, “1-[(1-Substituted-4-piperidinyl)methyl]-4-piperidine derivative, process for producing the same, medicinal compositions containing the same and intermediates of these compounds” (Dainippon Pharmaceutical Co., Ltd., priority 1998, dated 2001)

tested on: Mice of Std-ddY strain (evacuation); experiment: Assay on Evacuation in Mice (fecal pellets, oral); type: in vivo, mouse (Std-ddY, male); parameters: key: -: Inactive; +: Moderately stimulated (P<0.05); ++: Markedly stimulated (p<0.01); details: 1 mg/kg oral; fecal pellets at 30, 60 and 120 minutes; Dunnett's test; fumarates except numbers marked ** (25, 86: free bases)
Protocol: Male mice of Std-ddY strain weighing 25-30 g were used. Free access to food and water was allowed up to the beginning of the procedure.
The mice (each group: five mice) were placed in a mesh bottom cage for fasting, and they were allowed for acclimation to new environment for about one hour prior to the start of the experiment. A test compound, which was previously suspended in the 0.5% tragacanth solution, was administered orally to the mice at a dose of 1 mg/kg. The fecal pellets were counted and collected at 30, 60 and 120 minutes after the treatment of a test compound, and weighed.
The statistical judgment of efficacy was carried out between the control group and the treated group, and determined by Dunnett's test.

SMILES	Effect (evacuation)
CCN(CC)C(=O)N1CCC(CN2CCC(NC(=O)c3cc(Cl)c(N)cc3OC)CC2)CC1 [Example 2]	+
CCN(C)C(=O)N1CCC(CN2CCC(NC(=O)c3cc(Cl)c(N)cc3OC)CC2)CC1 [Example 4, 4-amino-5-chloro-N-[1-[1-(N-ethyl-N-methylcarbamoyl)-4-piperidinylmethyl]-4-piperidinyl]-2-methoxybenzamide]	++
COc1cc(N)c(Cl)cc1C(=O)NC1CCN(CC2CCN(C(=O)N(C)c3ccccc3)CC2)CC1 [Example 8, 4-amino-5-chloro-2-methoxy-N-[1-[1-(N-methyl-N-phenylcarbamoyl)-4-piperidinylmethyl]-4-piperidinyl]benzamide]	++
CCN(CC)C(=O)N1CCC(CN2CCC(NC(=O)c3cc(Cl)c(N)c4c3OCC4)CC2)CC1 [Example 19, 4-amino-5-chloro-N-[1-(1-diethylcarbamoyl-4-piperidinylmethyl)-4-piperidinyl]-2,3-dihydrobenzo[b]furan-7-carboxamide]	++
CCOc1cc(N)c(Cl)cc1C(=O)NC1CCN(CC2CCN(C(=O)N(CC)CC)CC2)CC1 [Example 27, 4-amino-5-chloro-N-[1-(1-diethylcarbamoyl-4-piperidinylmethyl)-4-piperidinyl]-2-ethoxybenzamide]	++
COCCC(=O)N1CCC(CN2CCC(NC(=O)c3cc(Cl)c(N)cc3OC)CC2)CC1 [Example 64]	+
COc1cc(N)c(Cl)cc1C(=O)NC1CCN(CC2CCN(C(C)=O)CC2)CC1 [Example 75]	++
COC(=O)N1CCC(CN2CCC(NC(=O)c3cc(Cl)c(N)cc3OC)CC2)CC1 [Example 76]	++
CCOC(=O)N1CCC(CN2CCC(NC(=O)c3cc(Cl)c(N)cc3OC)CC2)CC1 [Example 77]	++
COc1cc(N)c(Cl)cc1C(=O)NC1CCN(CC2CCN(C=O)CC2)CC1 [Example 79, 4-amino-5-chloro-N-[1-(1-formyl-4-piperidinylmethyl) -4-piperidinyl]-2-methoxybenzamide]	+
CCOC(=O)CN1CCC(CN2CCC(NC(=O)c3cc(Cl)c(N)cc3OC)CC2)CC1 [Example 90]	+

target: T1, Serotonin 4 (5-HT4) Receptors (Cavia porcellus, UniProt O70528); experiment: Binding Assay on Serotonin 4 (5-HT4) Receptors ([3H]-GR113808, striatum membrane fractions); parameters: species or system guinea pig (Std-Hartley); details: 50% inhibition of specific binding of 0.1 nM [3H]-GR113808; 37° C., 30 min; test compounds are fumarates except numbers marked ** (62, 72, 74: free bases)
T1 construct: the striatum was dissected; from tissue; host or cells: guinea pig (Std-Hartley) brain striatum, membrane fractions
Protocol: Std-Hartley guinea pigs weighing 300-400 g were decapitated, and the brain thereof was immediately taken out, and the striatum was dissected. To the tissue thus obtained was added 15-times volume of Hepes buffer (50 mM, pH7.4, 4° C.), homogenized in a Teflon homogenizer, and centrifuged at 48,000×g at 4° C. for 15 minutes. The pellet was suspended in the same Hepes buffer in a volume of 1 ml per 30 mg of the wet tissues to give receptor membrane fractions.
The reaction was terminated by rapid vacuum filtration and washing (3×4 ml) with ice-cold 50 mM Tris-HCl buffer (pH 7.7) through Whatman GF/B filter paper using a Brandel cell harvester. Prior to the filtration, the filter to be used was presoaked in a 0.1% solution of polyethylenimine for one hour. The radioactivity on the filter was determined with by ACS-II scintillation cocktail by a liquid scintillation counter.

T1 sequence (O70528 whole entry): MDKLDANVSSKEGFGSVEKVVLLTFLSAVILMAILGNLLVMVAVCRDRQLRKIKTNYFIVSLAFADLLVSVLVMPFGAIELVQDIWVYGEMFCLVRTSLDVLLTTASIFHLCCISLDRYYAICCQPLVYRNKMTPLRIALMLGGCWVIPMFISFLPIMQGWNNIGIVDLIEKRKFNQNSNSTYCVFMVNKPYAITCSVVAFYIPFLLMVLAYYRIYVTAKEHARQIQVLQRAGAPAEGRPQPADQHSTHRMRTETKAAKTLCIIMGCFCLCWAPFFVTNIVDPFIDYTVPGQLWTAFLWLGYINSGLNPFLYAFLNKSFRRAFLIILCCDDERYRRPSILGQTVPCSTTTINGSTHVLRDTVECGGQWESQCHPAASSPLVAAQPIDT

IC50	SMILES
11.9 nM	CCN(CC)C(=O)N1CCC(CN2CCC(NC(=O)c3cc(Cl)c(N)cc3OC)CC2)CC1 [Example 2]
15.5 nM	COc1cc(N)c(Cl)cc1C(=O)NC1CCN(CC2CCN(C(=O)N(C(C)C)C(C)C)CC2)CC1 [Example 3]
11.9 nM	CCN(C)C(=O)N1CCC(CN2CCC(NC(=O)c3cc(Cl)c(N)cc3OC)CC2)CC1 [Example 4, 4-amino-5-chloro-N-[1-[1-(N-ethyl-N-methylcarbamoyl)-4-piperidinylmethyl]-4-piperidinyl]-2-methoxybenzamide]
7.6 nM	CCCN(C)C(=O)N1CCC(CN2CCC(NC(=O)c3cc(Cl)c(N)cc3OC)CC2)CC1 [Example 5]
6.3 nM	COc1cc(N)c(Cl)cc1C(=O)NC1CCN(CC2CCN(C(=O)N(C)c3ccccc3)CC2)CC1 [Example 8, 4-amino-5-chloro-2-methoxy-N-[1-[1-(N-methyl-N-phenylcarbamoyl)-4-piperidinylmethyl]-4-piperidinyl]benzamide]
6.8 nM	CCN(CC)C(=S)N1CCC(CN2CCC(NC(=O)c3cc(Cl)c(N)cc3OC)CC2)CC1 [Example 11]
19.1 nM	COc1cc(N)c(Cl)cc1C(=O)NC1CCN(CC2CCN(C(=O)N3CCOCC3)CC2)CC1 [Example 13]
14.2 nM	COc1cc(N)c(Cl)cc1C(=O)NC1CCN(CC2CCN(S(=O)(=O)N(C)C)CC2)CC1 [Example 16]
2.7 nM	CCN(CC)C(=O)N1CCC(CN2CCC(NC(=O)c3cc(Cl)c(N)c4c3OCC4)CC2)CC1 [Example 19, 4-amino-5-chloro-N-[1-(1-diethylcarbamoyl-4-piperidinylmethyl)-4-piperidinyl]-2,3-dihydrobenzo[b]furan-7-carboxamide]
4.4 nM	CCOc1cc(N)c(Cl)cc1C(=O)NC1CCN(CC2CCN(C(=O)N(CC)CC)CC2)CC1 [Example 27, 4-amino-5-chloro-N-[1-(1-diethylcarbamoyl-4-piperidinylmethyl)-4-piperidinyl]-2-ethoxybenzamide]
2.3 nM	CCOc1cc(N)c(Cl)cc1C(=O)NC1CCN(CC2CCN(C(=S)N(C)C)CC2)CC1 [Example 33, 4-Amino-5-chloro-N-[1-(1-dimethylthiocarbamoyl-4-piperidinylmethyl)-4-piperidinyl]-2-ethoxybenzamide]
1.6 nM	COc1cc(N)c(Cl)cc1C(=O)NC1CCN(CC2CCN(C(=O)Nc3ccc(Cl)cc3)CC2)CC1 [Example 38]
2.3 nM	COc1ccc(NC(=O)N2CCC(CN3CCC(NC(=O)c4cc(Cl)c(N)cc4OC)CC3)CC2)cc1 [Example 39]
1.7 nM	COc1cc(N)c(Cl)cc1C(=O)NC1CCN(CC2CCN(C(=O)Nc3ccc(C)cc3)CC2)CC1 [Example 40]
6.4 nM	CCCNC(=O)N1CCC(CN2CCC(NC(=O)c3cc(Cl)c(N)cc3OC)CC2)CC1 [Example 42]
1.6 nM	COc1cc(N)c(Cl)cc1C(=O)NC1CCN(CC2CCN(C(=O)NCc3ccccc3)CC2)CC1 [Example 47]
4.4 nM	COc1cc(N)c(Cl)cc1C(=O)NC1CCN(CC2CCN(C(=O)NC3CCCC3)CC2)CC1 [Example 49]
1.9 nM	COc1cc(N)c(Cl)cc1C(=O)NC1CCN(CC2CCN(C(=O)NC3CCCCCC3)CC2)CC1 [Example 51]

IC50	SMILES
9.8 nM	COc1cc(N)c(Cl)cc1C(=O)NC1CCN(CC2CCN(C(N)=O)CC2)CC1 [Example 53, 4-amino-N-[1-(1-carbamoyl-4-piperidinylmethyl)-4-piperidinyl]-5-chloro-2-methoxybenzamide]
3.9 nM	COc1ccc(C(=O)N2CCC(CN3CCC(NC(=O)c4cc(Cl)c(N)cc4OC)CC3)CC2)cc1 [Example 60]
4.6 nM	COc1cc(N)c(Cl)cc1C(=O)NC1CCN(CC2CCN(C(=O)c3ccc(C)cc3)CC2)CC1 [Example 61]
1.4 nM	COc1cc(N)c(Cl)cc1C(=O)NC1CCN(CC2CCN(C(=O)c3cc(Cl)c(N)cc3OC)CC2)CC1 [Example 62]
20.7 nM	COCC(=O)N1CCC(CN2CCC(NC(=O)c3cc(Cl)c(N)cc3OC)CC2)CC1 [Example 63]
18 nM	COC(=O)CCCC(=O)N1CCC(CN2CCC(NC(=O)c3cc(Cl)c(N)cc3OC)CC2)CC1 [Example 69]
6.8 nM	COc1cc(N)c(Cl)cc1C(=O)NC1CCN(CC2CCN(C(=O)c3ccccc3)CC2)CC1 [Example 72, 4-amino-N-[1-(1-benzoyl-4-piperidinylmethyl)-4-piperidinyl]-5-chloro-2-methoxybenzamide]
4.2 nM	COc1cc(N)c(Cl)cc1C(=O)NC1CCN(CC2CCN(C(=O)c3ccc(Cl)cc3)CC2)CC1 [Example 73]
9 nM	COc1cc(N)c(Cl)cc1C(=O)NC1CCN(CC2CCN(C(=O)c3cc(OC)c(OC)c(OC)c3)CC2)CC1 [Example 74]
14.2 nM	COc1cc(N)c(Cl)cc1C(=O)NC1CCN(CC2CCN(C(C)C(C)=O)CC2)CC1 (centres unmarked) [Example 84, 4-amino-N-[1-[1-(2-butanon-3-yl)-4-piperidinylmethyl]-4-piperidinyl]-5-chloro-2-methoxybenzamide]
18.2 nM	COc1cc(N)c(Cl)cc1C(=O)NC1CCN(CC2CCN(CC(C)=O)CC2)CC1 [Example 85]
11.9 nM	COc1cc(N)c(Cl)cc1C(=O)NC1CCN(CC2CCN(CC(=O)C(C)(C)C)CC2)CC1 [Example 87]
7.2 nM	COc1cc(N)c(Cl)cc1C(=O)NC1CCN(CC2CCN(CCCC(C)=O)CC2)CC1 [Example 88]
6.5 nM	CCC(=O)CCN1CCC(CN2CCC(NC(=O)c3cc(Cl)c(N)cc3OC)CC2)CC1 [Example 89]
4.1 nM	CCOC(=O)CCCN1CCC(CN2CCC(NC(=O)c3cc(Cl)c(N)cc3OC)CC2)CC1 [Example 92]
12.5 nM	CCCCC(C(=O)OCC)N1CCC(CN2CCC(NC(=O)c3cc(Cl)c(N)cc3OC)CC2)CC1 (centres unmarked) [Example 98]
3.9 nM	CCC(=O)CN1CCC(CN2CCC(NC(=O)c3cc(Cl)c(N)c4c3OCC4)CC2)CC1 [Example 99, 4-amino-N-[1-[1-(2-butanon-1-yl)-4-piperidinylmethyl]-4-piperidinyl]-5-chloro-2,3-dihydrobenzo[b]furan-7-carboxamide]
1 nM	CCOC(=O)CCCN1CCC(CN2CCC(NC(=O)c3cc(Cl)c(N)c4c3OCC4)CC2)CC1 [Example 100, 4-amino-5-chloro-N-[1-[1-(3-ethoxycarbonylpropyl)-4-piperidinylmethyl]-4-piperidinyl]-2,3-dihydrobenzo[b]furan-7-carboxamide]
